SMILES strings stand for the structures. Like-named read-outs stand apart in the source and are kept apart here.

Holding throughout (format): cell-based
One test relates to NKCC1. The experiment in a line: Cellular inhibition of NKCC1 phosphorylation (pThr203). To be noted: n = 3, — = no inhibition. The source says: (§1) 8. Cellular Activity Profile of Inhibitors with the Salicyclic Amide
(§2) A list of the compounds evaluated for their ability to inhibit phosphorylation of SPAK/NKCC1/KCC3 activity is illustrated in Table 1 below.

The next test relates to KCC3. Put plainly: Cellular inhibition of KCC3 phosphorylation (pThr991, pThr1048). To be noted: Isotonic conditions; n = 3; — = no inhibition; read-out: KCC3 pThr1048 (μM) Iso.
Excerpt: as §1, §2

A further test concerns the target SPAK (Homo sapiens, UniProt Q9UEW8). The experiment in a line: Cellular inhibition of SPAK phosphorylation (pSer373). Conditions: 50% inhibition of phosphorylation, n = 3, — = no inhibition.
Excerpt: as §1, §2

Setting [1] is: Hypotonic conditions, read-out: NKCC1 pThr203 (μM) hypo.
[2] abbreviates: Isotonic conditions, read-out: NKCC1 pThr203 (μM) Iso.
The mark [3] stands for this setting: Hypotonic conditions, read-out: SPAK pSer373 (μM) hypo.
[4] abbreviates: Isotonic conditions, read-out: SPAK pSer373 (μM) Iso.

In the case of `Cc1cc(C(C#N)c2ccc(Cl)cc2)c(Cl)cc1NC(=O)c1ccccc1O` (stereo not drawn) [1b], the IC50 in the test on NKCC1 (setting [1]) came out at 1 µM; in the test on NKCC1 (setting [2]) it was 3 µM; with KCC3, 3 µM; on SPAK (setting [3]), 3 µM; at SPAK (setting [4]) it was 3 µM.

Turning to `Cc1cc(C(C#N)c2ccc(Cl)cc2)c(Cl)cc1NC(=O)c1ccccc1S` (stereo not drawn) [1c (ZT-05-037-01)], the IC50 in the test on NKCC1 (setting [1]) stood at 3 µM; in the test on NKCC1 (setting [2]), 1 µM; in the test with KCC3 it was 3 µM; at SPAK (setting [3]) it was 3 µM; on SPAK (setting [4]) it was 3 µM.

On to `Cc1cc(C(C#N)c2ccc(Cl)cc2)c(Cl)cc1NC(=O)c1ccccc1N` (stereo not drawn) [1d(ZT-06-022-01)], for which the IC50 in the test on NKCC1 (setting [1]) was determined as 3 µM; in the test on NKCC1 (setting [2]), 1 µM; in the test on KCC3 it was 3 µM; on SPAK (setting [3]), 3 µM; at SPAK (setting [4]) it was 3 µM.

Turning to `Cc1cc(C(C#N)c2ccc(Cl)cc2)c(Cl)cc1NC(=O)c1cc(Cl)cc(Cl)c1O` (stereo not drawn) [1f], the IC50 in the test with NKCC1 (setting [1]) came out at 3 µM; in the test with NKCC1 (setting [2]), 1 µM; with KCC3 it was 3 µM; at SPAK (setting [3]), 3 µM; at SPAK (setting [4]), 3 µM.

For `Cc1cc(C(C#N)c2ccc(Cl)cc2)c(Cl)cc1NC(=O)c1cc(F)ccc1O` (stereo not drawn) [1g(ZT-06-055-01)], the IC50 stood at 3 µM in the test on NKCC1 (setting [1]); 1 µM with NKCC1 (setting [2]); 3 µM in the test with KCC3; 3 µM at SPAK (setting [3]); 3 µM on SPAK (setting [4]).

Regarding `Cc1cc(C(C#N)c2ccc(Cl)cc2)c(Cl)cc1NC(=O)c1cccc(F)c1O` (stereo not drawn) [1h(ZT-06-039-01)], the IC50 in the test with NKCC1 (setting [1]) was found to be 3 µM; in the test with NKCC1 (setting [2]) it was 1 µM; with KCC3, 3 µM; at SPAK (setting [3]), 3 µM; at SPAK (setting [4]), 3 µM.
